The test system of data set [1] is HepG2 hepatoma cells (p53 wild-type). As to the kind of experiment: MTT cell viability assay, HepG2. It is filed as cell-based. As to conditions: Homo sapiens, 48 h. As for the experimental part: (§1) The effects of ART derivatives on the viability of the aforementioned cells may be determined using the MTT assay. Briefly, 2,000 cells per well were plated in triplicate in 96-well plates. After a 24-h incubation, the cells may be treated with varying concentrations of ART derivatives (0, 1, 5, 10, 25, 50, and 100 μmol/L) for 48 h. The MTT assay may be performed according to the manufacture's instruction and the resultant formazan crystals may be dissolved in DMSO (100 μL). The absorbance may be then recorded at 540 nm. The effects of ART derivatives on cell viability may be assessed by comparing the percent cell viability of the treated cells with the vehicle (DMSO)-treated control cells, which may be arbitrarily assigned at 100% viability. The experiment may be repeated thrice under the same conditions.

The test system of data set [2] is OVCAR-3 ovarian carcinoma cells. Briefly: MTT cell viability assay, OVCAR-3. It is filed as cell-based. The settings on record: Homo sapiens, OVCAR-3, 48 hrs.
Excerpt: (§2) Human ovarian IOSE144 (immortalized non-tumorigenic human ovarian surface epithelial cells) and ovarian carcinoma (A2780 and OVCAR-3) cells that may be obtained from the American Type Culture Collection (ATCC, Manassas, Va.) are gifts from Dr. Jing Fang (Institute for Nutritional Sciences, Shanghai, China). All cells may be cultured according to the ATCC instructions. The compounds (ARS, ART, ARM and DHA) may be dissolved in DMSO (<0.1%, final concentration).
as §1

The subject of data set [3] is Hep3B hepatoma cells (p53 null). As to the kind of experiment: MTT cell viability assay, Hep3B. It is filed as cell-based. The settings on record: Homo sapiens, 48 h. As for the experimental part: as §1
Data set [4] has as its system Huh-7 hepatoma cells (p53 mutant). Briefly: MTT cell viability assay, Huh-7. It is filed as cell-based. As to conditions: Homo sapiens, Huh-7 (p53 mutant), 48 h. As for the experimental part: as §1
Data set [5] deals with BEL-7404 hepatoma cells (p53 mutant). As to the kind of experiment: MTT cell viability assay, BEL-7404. It is filed as cell-based. The settings on record: Homo sapiens, BEL-7404 (p53 mutant), 48 h. As for the experimental part:
as §1

Data set [6] relates to A2780 ovarian carcinoma cells. Briefly: MTT cell viability assay, A2780. The format is cell-based. The settings on record: Homo sapiens, A2780, 48 hrs.
Excerpt: as §2, §1

The subject of data set [7] is four hepatoma cell lines (HepG2, Hep3B, Huh-7, BEL-7404). Briefly: MTT assay, mean over four hepatoma cell lines. The format is cell-based. As to conditions: Homo sapiens, mean of HepG2, Hep3B, read-out: overall mean IC50 in the four hepatoma cell lines. As for the experimental part:
as §1

Data set [8] concerns 7702 normal human liver cells. As to the kind of experiment: MTT cell viability assay, normal liver cells. As to conditions: Homo sapiens, 7702 cells, 48 h; for IC20: read-out: IC20 (concentration that reduces growth by 20%). It is filed as cell-based. As for the experimental part:
as §1

The subject of data set [9] is IOSE144 immortalized non-tumorigenic ovarian surface epithelial cells. Briefly: MTT cell viability assay, IOSE144. It is filed as cell-based. As to conditions: Homo sapiens, IOSE-144, IOSE144, 48 hrs.
Excerpt: as §2, §1

Data set [10] has as its system OVCAR-3 cells. Briefly: Annexin V-FITC apoptosis assay, OVCAR-3. It is filed as cell-based, human. The settings on record: OVCAR-3, 24 hrs; DHA 1 μM, CBP 500 μM, alone or combined. As for the experimental part:
ART- and DHA-induced apoptosis alone or in combination with gemcitabine in HepG2 and Hep3B cells or in combination with carboplatin in ovarian cancer cells may be determined by flow cytometry using the Annexin V-FITC Apoptosis Detection kit following the manufacturer's instructions. […] The cells may then be harvested, washed in PBS, and incubated with Annexin V and propidium iodide for staining in binding buffer at room temperature for 10 min in the dark. The stained cells may be analyzed using the FACSAria instrument.

For data set [11], the system named is OVCAR-3 xenograft tumors. As to the kind of experiment: OVCAR-3 xenograft model in nude mice. It is filed as in vivo. As to conditions: CBP only, single dose 120 mg/kg on day 0. As for the experimental part:
(§3) Four to six week old female athymic nude mice (BALB/c, nu/nu) may be purchased from Shanghai Experimental Animal Center (Shanghai, China). Animal studies are approved by the Institute for Nutritional Sciences. The tumor xenograft model may be established as follows. Briefly, A2780 and OVCAR-3 cells may be harvested and re-suspended in serum-free RPMI 1640 medium containing 20% (v/v) Matrigel (BD Biosciences, Bedford, Mass., USA). Aliquots of cells (˜5×10^6 cells/0.2 ml) may be injected subcutaneously into the left inguinal area of the mice. The tumor growth and body weight of the mice may be monitored every other day. Tumor mass may be determined. Mice bearing palpable tumors (˜70 mg) may be randomly divided into treatment and control groups n=5 mice/group). CBP may be dissolved in saline, and DHA may be dissolved in cremophor EL:ethanol:saline (5:5:90, v/v/v). DHA may be administered via i.p. injection at doses of 10 and 25 mg/kg/5 days/week for 3 weeks) alone or combined with CBP (at a single dose of 120 mg/kg, once on day 0). The control group receives saline only. Mice may be killed on day 18. Tumors may be carefully excised, trimmed of extraneous fat or connective tissue, and homogenized in RIPA buffer (100 mg tumor tissue/1 ml RIPA) and prepared for immunoblotting analysis as described above.

Data set [12] relates to A2780 xenograft tumors. The format is in vivo. As for the experimental part:
as §3, with “Briefly, A2780 and OVCAR-3 cells may be harvested and re-suspended in serum-free RPMI 1640 medium containing 20% (v/v) Matrigel (BD Biosciences, Bedford, Mass., USA).” left out

For data set [13], the system named is HepG2 xenograft tumors. As to the kind of experiment: HepG2 xenograft model in nude mice. It is filed as in vivo. The settings on record: HepG2 xenograft, gemcitabine alone 80 mg/kg i.p. days 7, 11, 15. As for the experimental part:
Female athymic nude mice (nu/nu; 4-6 wk of age) may be obtained from Shanghai Slac Laboratory Animal Co. Ltd. All animals may be fed with commercial diet and water ad libitum. The human HCC xenograft models in mice may be as follows. Briefly, HepG2 and Hep3B cells may be re-suspended in serum-free DMEM with Matrigel basement membrane matrix at a 5:1 ratio. The cell suspension may then be injected (7×10^6 cells; total volume, 0.2 mL) into the left inguinal area of the BALB/c nude mice. The animals may be monitored for activity and physical condition everyday, and the determination of body weight and measurement of tumor mass may be done every 3 d. Tumor mass may be determined by caliper measurement in two perpendicular diameters of the implant and calculated using the formula ½a×b^2, where a stands for the long diameter and b is the short diameter. The animal use and care protocol is approved by the Institutional Review Board of the Institute for Nutritional Sciences, Chinese Academy of Sciences.
Nude mice bearing HepG2 and Hep3B xenografts, randomly divided into various treatment and control groups (five mice per group), may be treated orally with either ART or DHA suspended in 5% sesame oil+95% saline, at a dose of 50 or 100 mg/kg/d, or a combination of ART or DHA with gemcitabine or with saline (as controls). In the mice receiving combination therapy, 80 mg/kg gemcitabine, representing one fifth of the reported most tolerated dose in mice, may be administered i.p. on days 7, 11, and 15 to avoid possible side effects and to illustrate potential chemo-sensitization effects in this combination regimen.

In data set [14] the test system is HCC. As to conditions: gemcitabine monotherapy, HCC patients; cited from earlier work.

For the compound `CO[C@H]1O[C@@H]2O[C@@]3(C)CC[C@H]4[C@H](C)CC[C@@H]([C@H]1C)[C@@]24OO3` [ARM, artemether], the IC20 is 2.6 µM in data set [1]; 2.08 µM in data set [2]; 2.4 µM in [3]; 1.2 µM in data set [4]; 2.4 µM in data set [5]; 2.08 µM in data set [6]. The IC20 in data set [8] stood at 7.9 µM; in data set [9], 98 µM. Also, the 50% inhibitory concentration (IC50) came to 54.8 µM in [1]; 38.8 µM in data set [2]; 51.5 µM in data set [3]; 31.4 µM in data set [4]; 31.8 µM in [5]; 53.9 µM in data set [6]. The figures for the IC50 in data set [7], in data set [8] and in data set [9] were 42.3 µM, 492 µM and above 500 µM, respectively. Further, the concentration for an effect of 80% (IC80) in data set [1], in data set [2], in data set [3], in data set [4], in data set [5] and in data set [6] was above 500 µM each time. For the same compound, the IC80 in data set [8] and in data set [9] was above 500 µM in each case.
Consider `C[C@H]1[C@H](OC(=O)CCC(=O)O)O[C@@H]2O[C@@]3(C)CC[C@H]4[C@H](C)CC[C@@H]1[C@@]24OO3` [ARS, artesunate], for which the IC20 in [1] is 1.3 µM; in [2] it was 3.93 µM; in data set [3], 1.5 µM; in data set [4] it was 0.6 µM; in [5] it was 1 µM; in data set [6], 7.68 µM. For the same compound, the IC20 is 7.3 µM in data set [8] and above 500 µM in data set [9]. Besides, the IC50 was 20.5 µM in [1]; 343 µM in data set [2]; 39.4 µM in data set [3]; 9.22 µM in data set [4]; 15 µM in [5]; above 500 µM in data set [6]. Besides, the IC50 in data set [7] is 21 µM; in data set [8], above 500 µM; in [9], above 500 µM. Also, the IC80 in [1] was 338 µM; in data set [2], above 500 µM; in data set [3] it was above 500 µM; in data set [4], 146 µM; in [5], 215 µM; in [6] it was above 500 µM. Besides, the IC80 in data set [8] and in [9] was above 500 µM in each case.
In the case of `N.N.O=C([O-])C1(C(=O)[O-])CCC1.[Pt+2]` [CBP, carboplatin], the “rate of apoptosis (control regarded as 100%)” value in data set [10] is 528%. Further, the tumor growth inhibition in data set [11] was 46%; in data set [12] (A2780 xenograft, CBP only, single dose 120 mg/kg on day 0) it was 56%. For the same compound, in [12] (mice bearing A2780 or OVCAR-3 xenografts), the “host toxicity based on observation of body weight” value is on record as “slight weight loss”.
With `Nc1ccn([C@@H]2O[C@H](CO)[C@@H](O)C2(F)F)c(=O)n1` [gemcitabine], the tumor growth inhibition in data set [13] was found to be 34.9%. Moreover, the median survival time entry in data set [14] is given as “up to 34 weeks”.

The values above are taken from patent US20100279976A1, “USE OF ARTEMISININ AND ITS DERIVATIVES IN CANCER THERAPY” (SHANGHAI INSTITUTES FOR BIOLOGICAL SCIENCES, CAS, priority 2009, published 2010).
